Results as given in patent publication US20110118277A1, “METHOD OF TREATING LIVER DISEASE” (priority 2003, published 2011).

Legend:
TNF-α = experiment: Hepatic expression of TNF-α mRNA in whole liver RNA; format: in vivo, mouse; details: 3 controls and 3 PRZ-treated mice
Source text: The latter possibility merits further investigation because it has been reported that TNF-a increases in mice that are fed choline-deficient diets and that proliferating hepatic oval cells produce this cytokine. Moreover, it has been reported that TNF-α is required for oval cell expansion because this response is abrogated by genetic disruption of TNFR1. These observations are particularly intriguing because TNF-α and TNFR1 are necessary for liver regeneration after PH and other types of liver injury. There is strong evidence for cross talk between signaling mechanisms that are activated by TNF-α and those that are modulated by sympathetic neurotransmitters, such as NE. In addition, NE regulates TNF production and vice versa. Thus, SNS inhibition may promote HPC accumulation and decrease liver injury indirectly, by effecting TNF-α activity. […] However, before firm conclusions can be drawn, these studies must be extended to include more animals and assays for TNF-α protein and activity will be necessary.

hepatocyte DNA synthesis = details: rats pre-treated immediately before PH; cited from earlier work
[1] = tested on: Mouse hepatic oval cells (HOC); experiment: Oval cell growth in culture (WST-8 cell number assay); format: cell-based
Description: Mouse hepatic oval cells (HOC) (from Dr. Bryon Petersen, University of Florida College of Medicine, Gainesville, Fla.) were maintained in culture with Iscove's modified DMEM according to the protocol described in PNAS 99: 8078-8083, 2002. To confirm that the cells retained their oval cell phenotype in our hands, expression of the embryonic isoform of pyruvate kinase (M2-PK) was evaluated by immunocytochemistry and immunoblot.
Sub-confluent HOC were harvested by gentle trypsinisation and resuspended in serum-free Iscove's modified Dulbecco's minimal essential medium (DMEM), at a density of 5,000 cells/100 μl/well in 96-well plates. […] After 44 hours, cell numbers were assessed by a further 4 h incubation with WST-8 tetrazolium reagent (Dojindo Molecular Technologies, Gaithersburg, Md.) as described in J Clin Invest 106: 501-509, 2000. In viable cells, the tetrazolium salt is metabolized to a colorimetric dye and cell number is proportional to the signal intensity at 450 nm Therefore, this assay reliably detects treatment-induced changes in cell number.
Oval cells were cultured in serum free medium (SF), serum or serum plus increasing concentrations of NE (a) or ISO (c). After 48 hours, the numbers of cells in culture were evaluated. […] Cell numbers were determined after 48 hours.

[2] = tested on: carbon tetrachloride-treated rats; details: earlier study; cited from earlier work
norepinephrine = details: 6-OHDA 100 mg/kg i.p. regimen, previously shown; cited from earlier work
[3] = tested on: C57BL-6 mice fed HMCDE diet; experiment: HMCDE diet-induced liver injury in mice: body weight, liver mass, histology, serum ALT, tolerability; format: in vivo, mouse
Description: C57BL-6 mice, 10-18 weeks old, were from Jackson Laboratory (Bar Harbor, Me.) were subjected to the following experiments.
In addition to choline deficiency the diet used here was also 50% deficient in methionine to enhance oxidative injury to the liver, This diet was administered with ethionine (0.15%) in drinking water (Hepatology 2001; 34; 519-522) and the combination treatment is hereafter referred to as half methionine choline deficient diet plus ethionine (HMCDE).
Chemical sympathectomy was achieved by intra-peritoneal (IP) injection of 6-hydroxydopamine (6-OHDA), 100 mg/kg for 5 consecutive days as described in Ann Surg 2001; 233:266-275. Thereafter, 6-OHDA was administered at 100 mg/kg i.p., three times per week to ensure continued sympathectomy.
Mice were divided into 4 groups, with each group containing 10 to 12 animals. […] Therefore, final results are derived from ˜100 mice (10-12 mice/group/experiment×2 experiments).
All mice were weighed at the beginning of the feeding period and weekly thereafter until killed. At the time of sacrifice, sera were collected from all the animals in each group and liver tissue from half the animals in each group. Collected liver tissues were either fixed in buffered formalin, preserved in OCT compound (Sakura, Torrance, Calif.) and processed for histology or snap frozen in liquid nitrogen and stored at −80° C. until RNA was isolated. The livers from the remaining animals in each group were prepared for flow cytometry as described below.
Wedges of liver from each of the mice were prepared for histology and immunochemistry as described previously (Am J Pathol 2002: 161:5210530 and Nat. Med. 2000; 6: 998-1003). For histology, tissues were formalin fixed, paraffin embedded and […] sections were stained with hematoxylin and eosin (H&E). Coded samples were examined by an experienced liver pathologist who was blinded to treatment groups. Hepatocellular fat accumulation was scored as, no fat 0, focal fat accumulation in <1% of the hepatocytes=F, fat in 1-30% of the hepatocytes 1+, fat in 31-60% of the hepatocytes=2+, and fat in 61-100% of the hepatocytes3+. To evaluate the amount of hepatocyte necrosis, the number of necrotic hepatocytes was counted in 10 randomly selected fields with a 20× lens.
Sera from all the animals were analysed for alanine aminotransferase (ALT) activity by the Clinical Chemistry laboratory of the Johns Hopkins Hospital.

NK-T cells = experiment: Flow cytometry of liver NK-T cells in HMCDE-fed mice; format: in vivo, mouse; details: HMCDE-treated mice; HMCDE alone 8±1%; mean±SEM
Description: Briefly, livers were carefully removed and homogenized in Stomacher80 (Seawood, England). The homogenate was then passed through a 100-μm wire mesh and liver cells were collected by centrifugation at 450 g. Mononuclear cells were purified from this fraction by centrifugation at 900 g over 35% Percoll gradients (Amersham Pharmacia Biotech) and incubated with normal mouse serum (Sigma, St Louis, Mo.) and Fc-receptor block (anti-CD16/CD32) to prevent nonspecific binding, plus APC-conjugated anti-mouse Thy-1.2 (the C57BL-6 form of the Thy-1 antibody) and antibodies directed against hematopoietic lineage markers (LIN, a mix of anti-mouse CD4, CD8, CD3, CD45, CD19, Mac-1, Gr-1, Ter119). For NK-T cell labelling, the mononuclear cells were incubated with FTTC-conjugated anti-mouse NK-1.1 and PE-conjugated anti-mouse CD3. All antibodies were from Pharmingen except anti-mouse Ter119, which was from Cedarline lab, Canada. After incubation, pellets were washed to remove unbound antibodies, fixed with 2% formaldehyde and evaluated by FACS (Becton Dickenson). As described in Science 1999; 284:1168-1170, LN^−ve/Thy-1^+ve cells, were classified as putative bone marrow-derived, hepatic progenitor cells. Data was analyzed by Cell Quest software (Becton Dickenson) to determine changes in these cell populations in different treatment groups.

Row | Compound | hepatic TNF-α gene expression versus HMCDE-treated controls (TNF-α) | compensatory induction of hepatocyte DNA synthesis after partial hepatectomy (hepatocyte DNA synthesis) | effect on proliferation induced by NE plus ISO ([1]; PRZ 10 μM, NE (100 nM)+ISO (100 nM)) | effect on NE-induced oval cell proliferation ([1]; prazosin 10 μM, pertussis toxin 100 ng/ml, PD98059 20 μM, SB202190 10 μM, 48 hours) | development of cirrhosis [2] | norepinephrine in rodent tissues (norepinephrine) | weight loss versus HMCDE group ([3]; FIG. 1, 4 weeks of feeding, P<0.05) | liver cell death / necrosis, representative liver section ([3]; FIG. 3A, H&E) | hepatocellular fat accumulation score, representative liver section ([3]; FIG. 3A, H&E, representative HMCDE animal 2+) | fat score versus HMCDE alone ([3]; FIG. 3B) | numbers of necrotic hepatocytes versus HMCDE diet alone ([3]; FIG. 3C, P<0.05) | serum alanine aminotransferase (ALT) versus HMCDE-fed mice ([3]; FIG. 3D, P<0.03) | mean body weight lost ([3]; mice fed HMCDE diet, 4 weeks, HMCDE alone lost 3 g) | body weight lost, % of starting body weight ([3]; mice fed HMCDE diet, 4 weeks, HMCDE alone lost 12%) | numbers of NK-T cells in the liver, % liver mononuclear cells (NK-T cells)
1 | COc1cc2nc(N3CCN(C(=O)c4ccco4)CC3)nc(N)c2cc1OC [PRZ, prazosin] | No differences in TNF-a gene expression were detected | inhibited | blocks catecholamine-induced proliferation | significantly attenuated | prevents the development of cirrhosis | – | – | – | – | – | – | – | – | – | –
2 | NCCc1cc(O)c(O)cc1O [6-OHDA, 6-hydroxydopamine] | – | – | – | – | – | virtually deplete norepinephrine in rodent tissues | lost less weight than the HMCDE group | minimal necrosis | F+ | significantly less fat than the HMCDE alone group | reduced | lower ALT levels | 2 g | 8% | 3.6 ± 0.6%
